Laboratory results from patent US5925769A, “Acetylenic 1,5-diarylpyrazoles as antiinflammatory agents” (Ortho Pharmaceutical, Corp., priority 1998, dated 1999).

Tests used:
[1] = target: T1, Sheep seminal vesicle (SSV) cyclooxygenase (Ovis aries, UniProt P05979); test: Procedure I: inhibition of sheep seminal vesicle (SSV) cyclooxygenase; assay type: biochemical; settings: SSV cyclooxygenase; for IC50: read-out: Proc. I IC50; for inhibition at 10 µM: 20 min, @ 10 .quadrature.M, read-out: Proc. I % inhibition
T1 construct: Sheep seminal vesicle (SSV) cyclooxygenase (95% pure); purchased Biomol (Plymouth Meeting, PA); host or cells: sheep seminal vesicle
T1 sequence (P05979 25-600): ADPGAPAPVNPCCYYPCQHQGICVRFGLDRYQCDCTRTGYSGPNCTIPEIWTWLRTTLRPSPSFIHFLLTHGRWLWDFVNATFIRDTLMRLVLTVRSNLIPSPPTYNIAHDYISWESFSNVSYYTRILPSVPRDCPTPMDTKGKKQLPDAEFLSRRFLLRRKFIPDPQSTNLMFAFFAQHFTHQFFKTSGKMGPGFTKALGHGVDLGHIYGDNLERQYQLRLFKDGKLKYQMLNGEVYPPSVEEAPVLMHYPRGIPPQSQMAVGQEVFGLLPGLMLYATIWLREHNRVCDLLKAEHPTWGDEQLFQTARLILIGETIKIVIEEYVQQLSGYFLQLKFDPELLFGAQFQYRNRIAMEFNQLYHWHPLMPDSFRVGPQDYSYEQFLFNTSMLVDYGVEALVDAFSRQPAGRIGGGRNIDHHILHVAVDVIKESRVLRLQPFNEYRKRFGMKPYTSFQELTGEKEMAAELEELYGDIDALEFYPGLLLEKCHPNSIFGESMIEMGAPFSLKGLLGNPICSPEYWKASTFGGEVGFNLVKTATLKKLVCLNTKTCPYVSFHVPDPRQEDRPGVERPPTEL
Method: Procedure I was used to determine the ability of the compounds to inhibit cyclooxygenase. […] The enzyme was divided into 200 μL aliquots, snap frozen with liquid N2, and stored at -70° C. until immediately prior to use. […] The tubes were mixed on a vortex shaker, preincubated for 5 min at 37° C. prior to the initiation of the reaction. The reaction was started by the addition of [^14 C]-arachidonic acid (1-^14 C-AA, Amersham, Arlington Heights, Ill.) in 10 μL of methanol. Tubes were again vortexed and incubated in a water bath for 20 minutes after which the tubes were removed and the reaction stopped by acidification with the addition of 1 mL 2M formic acid. Lipophilic products were extracted with 3 mL chloroform and concentrated to dryness under N2. Each pellet was reconstituted with 40 μL of chloroform and spotted on a Whatman Silicon thin-layer chromatography plate and developed in a chromatography tank containing A-9 solvent (11:5:2:1 V:V:VV, ethyl acetate:trimethyl-pentane:acetic acid:double distilled-H2 O). Radioactive cyclooxygenase products (prostaglandin D2, prostaglandin E2, etc.) were measured using a Bioscan System 200 Imaging Scanner. Inhibition of enzyme activity was calculated by comparing the areas under the curve produced in the presence or absence of test compound.

[2] = target: T2, CO (Rattus norvegicus, UniProt Q63921); test: Procedure II: CO activity in broken RBL-1 cells (homogenate supernatant); assay type: biochemical; settings: RBL-1 broken cell supernatant; for inhibition at 10 µM: 20 min, @ 10 .quadrature.M, read-out: Proc. II CO % inhibition; for IC50: read-out: Proc. II CO IC50
T2 construct: the supernatant was saved as the source of enzymes; endogenous in cells; host or cells: RBL-1 (rat basophilic leukemia) cells
T2 sequence (Q63921 27-602): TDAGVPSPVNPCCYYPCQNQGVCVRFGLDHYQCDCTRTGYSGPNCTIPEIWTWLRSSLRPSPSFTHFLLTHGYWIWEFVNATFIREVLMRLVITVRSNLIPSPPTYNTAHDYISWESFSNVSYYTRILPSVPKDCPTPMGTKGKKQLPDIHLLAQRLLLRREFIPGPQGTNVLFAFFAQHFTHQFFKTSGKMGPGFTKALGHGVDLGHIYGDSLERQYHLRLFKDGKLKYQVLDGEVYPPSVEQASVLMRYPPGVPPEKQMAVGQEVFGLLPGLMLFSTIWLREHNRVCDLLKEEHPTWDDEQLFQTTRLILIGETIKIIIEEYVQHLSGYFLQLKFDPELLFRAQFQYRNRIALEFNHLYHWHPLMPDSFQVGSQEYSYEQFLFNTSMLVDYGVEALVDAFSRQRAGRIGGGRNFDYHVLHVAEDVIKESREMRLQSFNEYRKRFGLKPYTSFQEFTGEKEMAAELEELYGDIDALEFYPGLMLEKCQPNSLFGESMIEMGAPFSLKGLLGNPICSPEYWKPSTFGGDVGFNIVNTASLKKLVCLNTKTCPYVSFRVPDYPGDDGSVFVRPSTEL
Method: (§1) Procedure II was used to assess LO and CO activity. Rat basophilic leukemia cells (RBL-1; 5×10^7 viable cells/mL) were disrupted by homogenization on ice (four 20 sec bursts) with a Brinkman polytron. […] The homogenate was then centrifuged at 9,220×g for 48 minutes at 4° C. The pellet was discarded and the supernatant was saved as the source of enzymes. The supernatant was pre-incubated for five minutes at 37° C. in the presence of 2 mM of CaCl2 and compound or vehicle (1% DMSO). The conversion of AA into products by CO and LO was initiated by adding 10 μL (50 μCi) of 1-^14 C-AA to each tube and incubated at 37° C. for 20 minutes. The reaction was stopped by adjusting the pH of each sample to 3 to 3.5 with 2M formic acid. Samples were extracted with three volumes of chloroform to isolate the products of 5-LO formed during the reaction. Fractions were dried under nitrogen, then resuspended in 40 μL of chloroform and spotted onto silica gel HL plates. The plates were developed in A-9 solvent. The dried plates were analyzed using a Bioscan Imaging TLC scanner to determine the percentage of radiolabelled AA converted to 5-HETE (LO product) in each sample. The percentage of inhibition was calculated by:
(§2) [1-(5-HETE test)]/5-HETE control×100=% inhibition
(§3) The IC50 was determined using a curve fit in Cricket Graph (Computer Associated), which provided the equation of the regressed line used in the calculation.

[3] = target: T3, 5-LO (Rattus norvegicus, UniProt P12527); test: Procedure II: 5-LO activity (5-HETE) in broken RBL-1 cells (homogenate supernatant); assay type: biochemical; settings: RBL-1 broken cell supernatant; for inhibition at 10 µM: 20 min, @ 10 .quadrature.M, read-out: Proc. II 5-LO % inhibition; for IC50: read-out: Proc. II 5-LO IC50
T3 construct: the supernatant was saved as the source of enzymes; endogenous in cells; host or cells: RBL-1 (rat basophilic leukemia) cells
T3 sequence (P12527 1-673): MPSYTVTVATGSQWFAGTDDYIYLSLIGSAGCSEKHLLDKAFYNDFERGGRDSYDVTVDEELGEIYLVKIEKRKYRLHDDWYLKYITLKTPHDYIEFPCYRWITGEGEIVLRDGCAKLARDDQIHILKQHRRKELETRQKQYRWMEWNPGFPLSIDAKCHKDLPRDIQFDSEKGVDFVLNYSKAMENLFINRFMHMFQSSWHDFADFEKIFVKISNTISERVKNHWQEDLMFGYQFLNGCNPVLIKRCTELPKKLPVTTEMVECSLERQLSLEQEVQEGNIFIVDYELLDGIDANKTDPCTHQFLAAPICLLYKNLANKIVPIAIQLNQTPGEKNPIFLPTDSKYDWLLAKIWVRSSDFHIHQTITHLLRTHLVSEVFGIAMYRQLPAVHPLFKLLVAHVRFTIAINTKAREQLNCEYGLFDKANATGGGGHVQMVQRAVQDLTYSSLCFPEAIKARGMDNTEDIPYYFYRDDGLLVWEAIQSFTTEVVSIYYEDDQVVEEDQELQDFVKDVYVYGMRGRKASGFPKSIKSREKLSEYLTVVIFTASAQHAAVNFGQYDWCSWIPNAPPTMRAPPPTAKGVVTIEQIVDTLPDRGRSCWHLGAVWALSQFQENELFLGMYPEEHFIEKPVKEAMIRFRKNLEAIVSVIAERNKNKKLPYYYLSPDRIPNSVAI
Method: as §1, §2, §3

[4] = target: T2, CO; test: Procedure III: CO (PgD2) in intact RBL-1 cells; assay type: cell-based; settings: calcium ionophore A 23187, read-out: Proc. III CO IC50
Method: as §3
(§4) In Procedure III, the ability to inhibit 5-LO and CO in intact RBL-1 cells was also evaluated. […] Cells were collected by centrifugation, washed once in HBSS, and resuspended at a concentration of 1×10^5 cells/mL. Cells were incubated in the presence of vehicle or drug then centrifuged at 800×g for 10 minutes at 4° C. The supernatant was removed by aspiration and the cells were resuspended in 0.5 mL of HBSS. […] The conversion of AA to 5-LO products was initiated by the addition of 10 μL (50 μCi) of 1-^14 C-AA. Products were isolated by acidification and extraction, followed by thin layer chromatography analysis as described above. Radioactive areas corresponding to authentic 5-LO (5-HETE) and CO (PgD2) products were quantitated by the Bioscan 2000 Imaging System and the IC50 was calculated as above.

[5] = target: T3, 5-LO; test: Procedure III: 5-LO (5-HETE) in intact RBL-1 cells; assay type: cell-based; settings: calcium ionophore A 23187, read-out: Proc. III 5-LO IC50
Method: as §3, §4

SMILES	IC50 [1]	inhibition at 10 µM [2]	inhibition at 10 µM [3]	IC50 [4]	IC50 [5]	IC50 [2]	IC50 [3]	inhibition at 10 µM [1]
COc1ccc(-n2nc(C#CC(C)N(O)C(=O)c3cccnc3)cc2-c2ccc(C)cc2)cc1 (stereo not shown) [Cpd 26]	6000 nM	54%	88%	11500 nM	25.4 µM			
COC(=O)N(O)C(C)C#Cc1cc(-c2ccc(C)cc2)n(-c2ccc(OC)cc2)n1 (stereo not shown) [Cpd 27]	530 nM			490 nM	7.1 µM	140 nM	280 nM	
CCc1ccc(-c2cc(C#CC(C)N(O)C(=O)CCl)nn2-c2ccc(OC)cc2)cc1 (stereo not shown) [Cpd 31]	6100 nM	86%	100%	1700 nM	36.8 µM			
CCOC(=O)CCC(=O)N(O)C(C)C#Cc1cc(-c2ccc(CC)cc2)n(-c2ccc(OC)cc2)n1 (stereo not shown) [Cpd 32]		52%	97%	14000 nM	5.1 µM			3%
CCc1ccc(-c2cc(C#CC(C)N(O)C(=O)OC)nn2-c2ccc(OC)cc2)cc1 (stereo not shown) [Cpd 34]		72%	78%	750 nM	57.4 µM			21%
COc1ccc(-n2nc(C#CC(C)N(O)C(=O)c3ccccc3)cc2-c2ccc(Cl)cc2)cc1 (stereo not shown) [Cpd 40]				5500 nM	1.8 µM	14900 nM	920 nM	5%
COc1ccc(-n2nc(C#CC(C)N(O)C(=O)Cn3ccnc3)cc2-c2ccc(C)cc2)cc1 (stereo not shown) [Cpd 43, N-(imidazol-1-yl)acetyl-N-(1-(1-(4-methoxyphenyl)-5-(4-methylphenyl)pyrazol-3-yl)-1-butyn-3-yl)hydroxylamine]	10000 nM	13%	67%	3600 nM	38.7 µM			

Compounds with a lower IC50 [4], results first:

IC50 [1]	inhibition at 10 µM [2]	inhibition at 10 µM [3]	IC50 [4]	IC50 [5]	IC50 [2]	IC50 [3]	inhibition at 10 µM [1]	SMILES
430 nM			220 nM	10.7 µM	10 nM	70 nM		CCC(C#Cc1cc(-c2ccc(C)cc2)n(-c2ccc(OC)cc2)n1)N(O)C(C)=O (stereo not shown) [Cpd 28, N-acetyl-N-(1-(1-(4-methoxyphenyl)-5-(4-methylphenyl)pyrazol-3-yl)-1-pentyn-3-yl)hydroxylamine]
2510 nM			340 nM	11.9 µM	60 nM	270 nM		CCc1ccc(-c2cc(C#CC(C)N(O)C(C)=O)nn2-c2ccc(OC)cc2)cc1 (stereo not shown) [Cpd 29, N-acetyl-N-(1-(5-(4-ethylphenyl)-1-(4-methoxyphenyl)pyrazol-3-yl)-1-butyn-3-yl)hydroxylamine]
590 nM	73%	93%	180 nM	13.1 µM				CCc1ccc(-c2cc(C#CC(C)N(O)C(=O)C(C)C)nn2-c2ccc(OC)cc2)cc1 (stereo not shown) [Cpd 30, N-isobutyryl-N-(1-(5-(4-ethylphenyl)-1-(4-methoxyphenyl)pyrazol-3-yl)-1-butyn-3-yl)hydroxylamine]
1620 nM	84%	77%	290 nM	8.7 µM				COC(=O)N(O)C(C)C#Cc1cc(-c2ccc(Cl)cc2)n(-c2ccc(OC)cc2)n1 (stereo not shown) [Cpd 41, N-methoxycarbony-N-(1-(5-(4-chlorophenyl)-1-(4-methoxyphenyl)pyrazol-3-yl)-1-butyn-3-yl)hydroxylamine]
